The values below come from patent publication US6417212B1, “Modulators of peroxisome proliferator activated receptors” (Eli Lilly & Company, priority 1999, dated 2002).

In the test the test system is huPPARα. Briefly: Cotransfection assay in CV-1 cells, huPPARα (GAL4 chimeric system). The class given is cell-based, human. Conditions: luciferase reporter, relative to PPARα agonist reference molecule. How it is done: DNA-dependent binding (ABCD binding) was carried out using SPA technology with PPAR receptors. Tritium-labeled PPARγ and PPARα agonists were used as radioligands for generating displacement curves and IC50 values with compounds of the invention. Cotransfection assays were carried out in CV-1 cells. The reporter plasmid contained an acylCoA oxidase (AOX) PPRE and TK promoter upstream of the luciferase reporter cDNA. Appropriate PPARs and RXRα were constitutively expressed using plasmids containing the CMV promoter. For PPARα and PPARβ, interference by endogenous PPARγ in CV-1 cells was an issue. In order to eliminate such interference, a GAL4 chimeric system was used in which the DNA binding domain of the transfected PPAR was replaced by that of GAL4, and the GAL4 response element was utilized in place of the AOX PPRE. Cotransfection efficacy was determined relative to PPARα agonist and […] reference molecules. Efficacies were determined by computer fit to a concentration-response curve, or in some cases at a single high concentration of agonist (10 μM). For binding or cotransfection studies with receptors other than PPARs, similar assays were carried out using appropriate ligands, receptors, reporter constructs, etc., for that particular receptor.
These studies were carried out to evaluate the ability of compounds of the invention to bind to and/or activate various nuclear transcription factors, particularly huPPARα (“hu” indicates “human”) and huPPARγ. These studies provide in vitro data concerning efficacy and selectivity of compounds of the invention. Furthermore, binding and cotransfection data for compounds of the invention were compared with corresponding data for marketed compounds that act on either huPPARα or huPPARγ.

On to `Cc1oc(-c2ccc(-c3c(F)cccc3F)cc2)nc1CCOc1ccc(OC(C)(C)C(=O)O)cc1` [Example 14, 2-(4-{2-[2-(2′,6′-Difluorobiphenyl-4-yl)-5-methyloxazol-4-yl]-ethoxy}-phenoxy)-2-methylpropionic acid], for which the “huPPARα CTF Efficacy” value was 90%. Next, `Cc1oc(-c2ccc(-c3ccccc3)cc2)nc1CCOc1cccc(OC(C)(C)C(=O)O)c1` [Example 21, 2-{3-[2-(2-Biphenyl-4-yl-5-methyloxazol-4-yl)ethoxy]phenoxy}-2-methylpropionic acid]: 92%. Next, `Cc1sc(-c2cccc(-c3ccccc3)c2)nc1CCOc1ccc(OC(C)(C)C(=O)O)cc1` [Example 46, 2-{4-[2-(2-Biphenyl-3-yl-5-methyl-thiazol-4-yl)-ethoxy]-phenoxy}-2-methyl-propionic acid]: 122%.
